Measurements published in patent US20160228584A1, “18F -GLUTATHIONE CONJUGATE AS A PET TRACER FOR IMAGING TUMORS OR NEUROLOGICAL DISORDERS THAT OVEREXPRESS L-PGDS ENZYME” (National Tsing Hua University, priority 2015, published 2016).
One block for each molecule: values may come before it.

Legend:
C6 glioma brain tumor = experiment: PET imaging of C6-glioma rat brain tumor; assay type: in vivo; details: tail vein injection, three cross sections
Method: All studies involving animals were conducted in compliance with federal and institutional guidelines. Two weeks before imaging, healthy male SD rats were stereotactically inoculated in the right hemisphere with 1.0×10^5 C6 glioma cells (American Type Tissue Collection).
After C6 glioma cells were injected into the striatum of the SD rats, the animals were placed on heating pad until they have entirely recovered. When the xenografted tumor size has grown to a size of 1-2 mm in diameter, the animals were transferred to the animal facility under control by the research staff every morning. […] Prior to imaging, all rats were affixed with venous and arterial catheters. The in vivo xenograft C6 glioma was imaged 2 weeks after transplantation procedure, until the volume of the tumor reached 3 mm-5 mm in diameter, well-demarcated from normal brain tissue. Regular oral feeding was proceeded after the animals were recovered from anesthesia.
PET scanning experiments were performed within 72 hours of MRI experiment that used to confirm a successful inoculation of tumors by administering [^18F] FBuEA-GS3 via tail vein injection. Both machines of microPET and nanoPET/CT were employed.
Data were collected in list-mode format for 120 minutes. For reconstruction, the dynamic PET acquisition was divided into six 20-min frames over the scanning duration. […]

[1] = Ex vivo analysis of biodistribution; assay type: in vivo; details: rat
Description: The specimens included 1) organ tissues such as brain, liver, spleen, heart, kidney, lung, colon, small bowel, stomach, testes, skull, and muscle, and 2) body fluids such as blood and urine. These specimens were submitted for counting the radioactivity using a solid scintillation gamma counter (Packard 5000, Packard Instrument Co. laboratory). The counting value of each specimen was further divided by the sample weight to give the final expression as percentage of injection dose per sample weight (% ID/g).

GST-α = target: T1, GST-α (Homo sapiens, UniProt P08263); experiment: Radioligand enzymatic binding assay (gel filtration HPLC); details: GSTA1-1
T1 construct: purchased Pro SpecTany Techno Gene Ltd ENZ-469
T1 sequence (P08263 1-222): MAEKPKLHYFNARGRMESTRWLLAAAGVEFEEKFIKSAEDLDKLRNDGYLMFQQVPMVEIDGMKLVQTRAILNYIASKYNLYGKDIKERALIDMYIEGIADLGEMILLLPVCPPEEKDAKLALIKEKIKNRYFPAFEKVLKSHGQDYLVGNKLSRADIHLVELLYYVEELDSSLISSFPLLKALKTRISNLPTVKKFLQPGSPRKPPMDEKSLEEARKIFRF
Method: (§1) The flow rate was 1 mL/min.
(§2) L-PGDS catalyzes the […] of prostaglandin H2 (PGH2), a metabolite (also known as a prostanoid) derived from arachidonic acid (AA) through oxidation and reduction via the catalysis of COX enzymes. For comparison, mPGES-1, the counterpart of L-PGDS that catalyzes the formation of PGE2 from COX-derived PGH2, was also used in this study. […] Thus, GST-P1 and GST-A1-1 enzymes were only used as negative controls.

m-PGES = target: T2, m-PGES (Homo sapiens, UniProt O14684); experiment: as above; details: mPGES-1
T2 construct: purchased Cayman Chemical Inc
T2 sequence (O14684 1-152): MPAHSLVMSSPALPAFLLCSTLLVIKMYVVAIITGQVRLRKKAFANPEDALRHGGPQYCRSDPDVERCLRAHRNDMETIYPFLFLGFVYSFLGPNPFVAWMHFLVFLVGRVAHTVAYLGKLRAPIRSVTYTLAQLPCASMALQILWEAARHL
Method: as §1, §2

GST-π = GST-π (Homo sapiens, UniProt P09211); experiment: as above; details: GSTP1
Method: as §1, §2

C6 glioma = experiment: Cellular uptake of radiotracer in tumor cells; assay type: cell-based
Method: The time point of addition of radio tracer was staggered such that every group could be harvested concurrently. At various times of 0.25, 0.5, 1.5, 3 and 5 h, the collection of the medium was progressing. During harvesting, the radioactive medium was collected from each of the wells, followed by rinsing with PBS […] twice. The medium and rinses (1.5 mL) were combined for counting; the counts were treated as extracellular radioactivity. Subsequently, the cells were lysed with 0.25% trypsin-EDTA ([…]) and the wells were rinsed with PBS twice. Both cells and rinses (1.5 mL) were combined for counting; the counts were treated as intracellular radioactivity. Radioactivity was measured using a scintillation gamma counter (Packard 5000, Packard Instrument Co. laboratory) and decay was corrected. Samples were performed triplicated at each time point for all uptake studies.
The uptake ratio was calculated according to the following expression:
Uptake ratio(%)=Countintracellular=Countextracellular+Countintracellular)×100%

L-PGDS = target: T3, L-PGDS (Homo sapiens, UniProt P41222); experiment: Competitive inhibition of the production of PGD2 from PGH2 catalysed by L-PGDS (Cayman kit, EIA readout); assay type: biochemical; details: 200 μM of each test compound; duplicate; read-out: inhibition of the formation of PGD2 from PGH2
T3 construct: purchased Cayman 10006595
T3 sequence (P41222 23-190): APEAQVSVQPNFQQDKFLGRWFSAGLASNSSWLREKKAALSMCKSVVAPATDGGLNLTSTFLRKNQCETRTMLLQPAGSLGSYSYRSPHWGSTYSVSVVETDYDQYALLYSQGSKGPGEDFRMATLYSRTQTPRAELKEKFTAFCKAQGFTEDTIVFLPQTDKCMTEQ

- radioactivity in the brain ([1]; brain, 1.0-1.5 mCi injected): 0.05 % ID/g
- distribution of radioactivity (in words) ([1]; fourteen tissue samples): mainly localized in the excretory system
- binding affinity (in words) (GST-α): weak binding affinities
- binding affinity (in words) (m-PGES): did not show any binding affinity
- binding affinity (in words) (GST-π): weak binding affinities
Compound: CCC(CSC[C@@H](NC(=O)CC[C@@H](N)C(=O)O)C(=O)NCC(=O)O)C(=O)c1ccc(OCC(=O)NCCCC[18F])c(Cl)c1Cl (stereo partly drawn) [[^18F]FBuEA-GS 3, glutathione conjugate of fluorine-18-labeled fluorobutyl ethacrynic amide]
- PET imaging of brain tumor (in words) (C6 glioma brain tumor): clear hot spot coinciding to the tumor region detected by MRI imaging
- time to reach steady state of accumulation (C6 glioma; cellular uptake): approximately 15 min

Compound: O=c1ccn([C@@H]2O[C@H](CO)[C@@H](O)[C@H]2O)c(=O)[nH]1 [uridine]
- inhibition at 200 µM (L-PGDS): 5.6 ± 14.3%

Compound: C=C(CC)C(=O)c1ccc(OCC(=O)NCCCC[18F])c(Cl)c1Cl [[^18F]FbuEA 2, fluorine-18-labeled fluorobutyl ethacrynic amide]
- uptake in tumor cells versus normal cells (in words) (C6 glioma; tumor cells compared to normal cell): lower uptake in tumor cells compared to normal cell
